US20060251654A1, “Method for treatment of malignant and infectious chronic diseases” (Centro de Inmunologia Molecular, priority 2001, published 2006)

Tested on: syngeneic tumor 3LL-D122
Assay: Survival of mice bearing 3LL-D122 tumor after surgery of the primary tumor (Examples 5 and 6)
Type: in vivo, C57BL/6 mice
Conditions: EGF-p64 vaccine i.m., two weeks later Cyclophosphamide 50 mg/kg i.v., three days later second vaccine dose; versus vaccine plus saline or Cyclophosphamide only
Protocol: C57BL/6 mice were injected with the syngeneic tumor 3LL-D122 (200,000 cells/animal) in the right plantar pad. The evolution of the tumor was evaluated by measurement of its diameters every 3 days and surgery of the primary tumor was practiced (amputation) when it reached 8-9 mm of diameter. Mice survival, which is depended of spontaneous lung metastases was measured.
Two days after the inoculation of the tumor mice were injected by intramuscular route with a vaccine that contains 4 μg of human EGF conjugated to the p64 protein (EGF-p64) in Montanide ISA 51 (100 μl final volume) and two weeks later they were treated with 50 mg/kg of Cyclophosphamide by intravenous route or with saline solution. After three days, the mice were re-immunized by intramuscular route with a second dose of the EGF-p64 vaccine.
An animal group just was treated by intravenous route with 50 mg/kg of Cyclophosphamide and another one was not treated.
C57BL/6 mice were injected with the syngenic tumor 3LL-D122 as it is described in Example 5.
Two days after to the inoculation of the tumor, mice were injected by intramuscular route with a vaccine that contains 4 μg of human EGF conjugated to the P64 protein (EGF-p64) in Montanide ISA 51 (100 μl final volume) and two weeks later they were treated with 1 mg of anti-CD25 monoclonal antibody by intravenous route or with saline solution as control. […]

O=P1(N(CCCl)CCCl)NCCCO1 (stereo not shown) [Cyclophosphamide]
mice survival: increases the mice survival
